Test [1] deals with T1, GBA3 (Homo sapiens, UniProt Q9H227).
T1 construct: expressed in transfected cells; host or cells: HEK293T (GBA/GBA2 KO background for the fluorogenic assay; endogenous-GBA background with GBA2 and GBA3 overexpressed for ABPP and intact-cell assays)
T1 sequence (Q9H227 1-469): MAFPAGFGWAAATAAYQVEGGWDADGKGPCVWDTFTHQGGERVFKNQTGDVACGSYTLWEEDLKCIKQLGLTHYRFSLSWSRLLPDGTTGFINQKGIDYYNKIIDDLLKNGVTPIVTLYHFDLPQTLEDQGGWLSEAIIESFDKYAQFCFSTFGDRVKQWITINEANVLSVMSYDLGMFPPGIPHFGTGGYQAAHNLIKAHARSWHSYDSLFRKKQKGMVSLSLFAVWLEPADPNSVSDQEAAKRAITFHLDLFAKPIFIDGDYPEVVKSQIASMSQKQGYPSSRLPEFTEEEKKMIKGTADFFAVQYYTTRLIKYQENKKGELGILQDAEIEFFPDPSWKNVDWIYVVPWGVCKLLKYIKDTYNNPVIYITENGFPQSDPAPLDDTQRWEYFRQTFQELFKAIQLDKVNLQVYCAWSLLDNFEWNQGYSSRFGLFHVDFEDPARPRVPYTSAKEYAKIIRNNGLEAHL
The test is described as follows: Inhibition in intact HEK293T cells (24 h), read out by cABPP with ABP 10, GBA3. The format is cell-based. The conditions noted are these: for IC50: 24 h treatment, cABPP quantification, n=3; for GBA3/GBA ratio, intact cells: IC50 ratio, 24 h. An excerpt: We next examined the activity of 1 and 2 towards the three human β‐D‐glucosidase in intact HEK293T cells. […] It is noted that the GBA‐selectivity of both compounds is much improved in intact cells than in the in vitro system (Figure 2 and Table 1). This is especially true for compound 1, where an impressive 4‐logs of selectivity window is observed.
Figure 5 Inhibitory effect of β‐D‐xylo‐configured cyclophellitol 1 and cyclophellitol aziridine 2 on β‐glucosidases in intact HEK293T cells expressing GBA, GBA2 and GBA3. (A) Representative gel images of cABPP where cells were treated for 24 h with indicated inhibitor. Lysates were then prepared and labeled with fluorescent ABP 10. Fluorescently labeled proteins were visualized after SDS‐PAGE (1 set from n=3 replicates). (B) IC50 curves determined by cABPP labeling results. (C) Apparent IC50 values towards β‐glucosidases in intact HEK293T cells producing GBA, GBA2 and GBA3 were determined by the fluorescence quantification based on cABPP SDS‐PAGE results.
ABP labeling procedure: Glycosidases were labeled with excess fluorescent ABPs at optimum conditions. ABP labeling was performed at 37 °C for 30 min for all materials (if not otherwise stated), in a total sample volume of 20–40 μL and 0.5–1 % DMSO concentration. GBA was labeled with 200 nM ABP 9 (pH 5.2, 0.1 % (v/v) Triton‐100, 0.2 % (w/v) sodium taurocholate), or labeled together with GBA2 using 200 nM β‐D‐glucose‐configured aziridine ABP 10 at pH 5.8, or labeling together with GBA2 and GBA3 using 200 nM β‐D‐glucose‐configured aziridine ABP 10 at pH 6.0. After ABP incubation, proteins were denatured by boiling the samples with 5× Laemmli buffer (50 % (v/v) 1 M Tris‐HCl, pH 6.8, 50 % (v/v) 100 % glycerol, 10 % (w/v) DTT, 10 % (w/v) SDS, 0.01 % (w/v) bromophenol blue) for 5 min at 98 °C, and separated by electrophoresis on 10 % (w/v) SDS‐PAGE gels running continuously at 90 V. Wet slab‐gels were scanned on fluorescence using the Typhoon FLA 9500 (GE Healthcare) at λEX 473 nm and λEM≥510 nm for green fluorescent ABP 8; and at λEX 635 nm and λEM≥665 nm for ABP 6, 9 and 10. ABP‐emitted fluorescence was quantified using ImageQuant software (GE Healthcare, Chicago, IL, USA) and curve‐fitted using Prism 8.0 (GraphPad Software). After fluorescence scanning, SDS‐PAGE gels were stained for total protein with Coomassie G250 and scanned on a ChemiDoc MP imager (Bio‐Rad, Hercules, CA, USA).[25]
Assessment of inhibitor activity in cultured cells: Confluent HEK293T stably expressing human GBA and GBA2 GBA3 overexpressing were cultured in 24‐well plates in triplicates with(out) inhibitors for 24 h at 37 °C with 7 % CO2. […]

Test [2] concerns the target GBA (Danio rerio, UniProt E7EZM1). Briefly: In vivo inhibition in zebrafish larvae, read out by cABPP with ABP 10, GBA. The conditions noted are these: larvae exposed to 5 dpf, inhibitor in the medium, cABPP quantification. Set-up: species or system zebrafish (Danio rerio). From the text: We further investigated the affinity of 1 and 2 towards β‐D‐glucosidases in living animals using zebrafish (Danio rerio) embryos, which express both GBA and GBA2. Following exposure for 5 days, fish larvae were sacrificed and lysed, and cABPP with ABP 10 was used to detect residual active β‐D‐glucosidase molecules in the lysates and for IC50 determination. […] Aziridine compound 2 is also selective against GBA over GBA2, albeit with a narrower selectivity window (Figure 6A–C). […]
Figure 6 In vivo inhibitory effect of β‐D‐xylo‐configured compounds on β‐glucosidases in zebrafish (Danio rerio) larvae. […] Fluorescently labeled proteins were visualized after SDS‐PAGE, only GBA and GBA2 were assessed in zebrafish larvae model. (B) Apparent IC50 values towards β‐glucosidases (GBA and GBA2) were determined by the fluorescence quantification based on cABPP results. […] (D) GlcSph levels in zebrafish larvae were determined as described in experiment section, n=2 replicates.
ABP labeling procedure: Glycosidases were labeled with excess fluorescent ABPs at optimum conditions. […] ABP‐emitted fluorescence was quantified using ImageQuant software (GE Healthcare, Chicago, IL, USA) and curve‐fitted using Prism 8.0 (GraphPad Software). After fluorescence scanning, SDS‐PAGE gels were stained for total protein with Coomassie G250 and scanned on a ChemiDoc MP imager (Bio‐Rad, Hercules, CA, USA).[25] […]

The results in this text go back to PMC8596838, “Xylose‐Configured Cyclophellitols as Selective Inhibitors for Glucocerebrosidase” (Chembiochem, 2021).

A value given as a limit tells only on which side of the number the result lay.

GBA, sequence (E7EZM1 entry or part of it): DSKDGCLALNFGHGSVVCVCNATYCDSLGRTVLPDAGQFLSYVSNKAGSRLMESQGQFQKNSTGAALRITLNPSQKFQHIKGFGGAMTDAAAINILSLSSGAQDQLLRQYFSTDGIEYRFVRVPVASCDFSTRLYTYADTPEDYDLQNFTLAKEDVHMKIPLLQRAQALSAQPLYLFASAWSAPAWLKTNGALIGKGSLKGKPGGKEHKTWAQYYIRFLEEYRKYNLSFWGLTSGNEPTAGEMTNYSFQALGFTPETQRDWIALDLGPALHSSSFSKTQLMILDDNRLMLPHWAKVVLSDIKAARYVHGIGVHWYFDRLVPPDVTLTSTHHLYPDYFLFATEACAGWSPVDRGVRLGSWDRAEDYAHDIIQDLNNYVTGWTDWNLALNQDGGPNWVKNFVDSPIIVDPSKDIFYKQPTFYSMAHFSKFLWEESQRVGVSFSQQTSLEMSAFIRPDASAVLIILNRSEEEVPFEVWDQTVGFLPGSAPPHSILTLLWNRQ

As usually defined, the IC50 is the concentration that inhibits the measured activity by half. Lower therefore signals higher potency. In the case of `O[C@@H]1[C@@H](O)[C@H](O)C[C@H]2O[C@@H]12` [compound 1, xylo‐cyclophellitol], in test [1], the concentration for half-maximal inhibition (IC50) was > 100 µM and the “GBA3/GBA ratio, intact cells” value is on record as > 10000. Also, 3.01 µM corresponded to half-maximal inhibition in test [2] (IC50).

For the molecule `O[C@@H]1[C@@H](O)[C@H](O)C[C@H]2N[C@@H]12` [compound 2, β‐D‐xylo‐Cyclophellitol aziridine], in test [1], the IC50 was 48.9 ± 12.7 µM and the “GBA3/GBA ratio, intact cells” value was determined as 1159. In test [2], this molecule returned an IC50 of 6.99 µM.
